Results on one compound are retold here after patent publication US20100021918A1, “METHOD FOR ASSAYING ACTION OF ANTITUMOR AGENT USING SPLICING DEFECTS AS INDEX” (Eisai R&D Management Co., Ltd., priority 2007, published 2010).

This assay concerns p27/Kip1. Put plainly: Western blotting of abnormal protein from pre-mRNA, p27/Kip1. Conditions: HeLa cells, about 100 nM, 24 hours; untreated: only a 27 kDa band (FIG. 4). In kind it is cell-based, human. The text has this: Consequently the protein may serves as a protein marker to monitor the action of (8E,12E,14E)-7-((4-cycloheptylpiperazin-1-yl)carbonyl)oxy-3,6,16,21-tetrahydroxy-6,10,12,16,20-pentamethyl-18,19-epoxytricosa-8,12,14-trien-11-olide. Whether the pre-mRNA-dependent abnormal protein practically emerged upon the treatment of (8E,12E,14E)-7-((4-cycloheptylpiperazin-1-yl)carbonyl)oxy-3,6,16,21-tetrahydroxy-6,10,12,16,20-pentamethyl-18,19-epoxytricosa-8,12,14-trien-11-olide was examined by using cancer cells (HaLa). […] Based on these findings, the protein generated from pre-mRNA can serve as the marker as well.
About 3×10^5 cells of HeLa cells were first seeded in a 24-well culture plate (bottom area: 2 cm^2), and 18 hours later, the compound was added thereto at the indicated concentration, followed by additional 24-hour culturing. The cells were washed once with PBS(−), and then were lysed by treating with 0.2 ml of M-PER reagent (PIERCE) for 30 minutes. The collected lysate was filtered with a 0.45 μm filter to remove insoluble matters and then combined with an equal amount of 2×SDS-PAGE sample solution. The mixture was heated to be denatured at 95° C. for five minutes to yield a sample to be analyzed.
The analysis sample (15 μl each) was separated with 5-20% SDS-PAGE and transferred onto a PVDF membrane (Hybond-P: GE-Amersham). […]
A general note: In western blotting, separated proteins are transferred to a membrane and probed.

With `CCC(O)C(C)C1OC1CC(C)(O)/C=C/C=C(\C)C1OC(=O)CC(O)CCC(C)(O)C(OC(=O)N2CCN(C3CCCCCC3)CC2)/C=C/C1C` (stereo not shown) [E7107, (8E,12E,14E)-7-((4-cycloheptylpiperazin-1-yl)carbonyl)oxy-3,6,16,21-tetrahydroxy-6,10,12,16,20-pentamethyl-18,19-epoxytricosa-8,12,14-trien-11-olide], the “p27/Kip1 bands in Western blot” value is recorded as “appearance of a band with about 22 kDa was confirmed”.
